This is an account of results in patent US20060251576A1, “Methods for measuring cholesterol metabolism and transport” (The Regents of the University of California, priority 2005, published 2006).

In this experiment the test system is reverse cholesterol transport (RCT). The experiment is described as follows: Global RCT parameter in rats: Ra cholesterol combined with recovery of administered labeled cholesterol in fecal neutral sterols or bile acids. Type of experiment: in vivo. Particulars: for "global parameter" of RCT into neutral sterols (product of Ra cholesterol and excretion of plasma cholesterol): rats fed the agent for 7 days. The protocol:
A refinement of the approach outlined in Example 1, involves calculating the Ra of plasma cholesterol and combining that measurement with the fractional excretion of administered cholesterol as described in Example 4. The recovery of plasma cholesterol in stool is defined as the proportion of administered labeled cholesterol that was excreted in fecal neutral sterols. It is expressed as % label recovered from day 1-4 following infusion. It is calculated from: % ^13C enrichment in fecal neutral sterols, the mg/day excretion of neutral sterols and divided by total mg 1 ^13C cholesterol administered. [formula] The same calculation is made for the recovery of plasma cholesterol into bile acids excreted in stool. Rats were treated with common and investigational cholesterol lowering agents, cholesterolamine, ezetimibe, LXR agonist (TO-901317). The Ra of cholesterol is calculated as described, the recovery of administered cholesterol in fecal sterol or bile acids are calculated as described.

As for `O=S(=O)(c1ccccc1)N(CC(F)(F)F)c1ccc(C(O)(C(F)(F)F)C(F)(F)F)cc1` [TO-901317], the “"global parameter" of RCT into neutral sterols (product of Ra cholesterol and excretion of plasma cholesterol)” value was “significant increase observed”. Further, the “excretion of plasma cholesterol into neutral sterols and the global parameter of RCT” value (rats) is reported as “observed increase in RCT”.

`O=C1[C@H](CC[C@H](O)c2ccc(F)cc2)[C@@H](c2ccc(O)cc2)N1c1ccc(F)cc1` [ezetimibe]: the “"global parameter" of RCT into neutral sterols (product of Ra cholesterol and excretion of plasma cholesterol)” value is recorded as “significant increase observed”. Further, the “plasma flux to neutral sterols (effect on RCT)” value (rats, FIG. 12) was “increase in plasma flux to neutral sterols”.
